According to ChEMBL document CHEMBL2429748, “DFT-based prediction of antifungal and insecticidal activities of perfluorophenyl antimony(III) and antimony(V) chlorides” (Med Chem Res, 2013):

Assays:
Type in all cases: functional, organism-based
Aspergillus flavus [1] = experiment: Antifungal activity against Aspergillus flavus assessed as growth inhibition at 100 ug/mL by agar diffusion method relative to control
Aspergillus niger [2] = experiment: Antifungal activity against Aspergillus niger assessed as growth inhibition at 10 ug/mL by agar diffusion method relative to control
Aspergillus niger [3] = experiment: Antifungal activity against Aspergillus niger assessed as growth inhibition at 100 ug/mL by agar diffusion method relative to control
Aspergillus flavus [4] = experiment: Antifungal activity against Aspergillus flavus assessed as growth inhibition at 20 ug/mL by agar diffusion method relative to control
Aspergillus niger [5] = experiment: Antifungal activity against Aspergillus niger assessed as growth inhibition at 20 ug/mL by agar diffusion method relative to control
Aspergillus flavus [6] = experiment: Antifungal activity against Aspergillus flavus assessed as growth inhibition at 10 ug/mL by agar diffusion method relative to control
Aspergillus flavus [7] = experiment: Antifungal activity against Aspergillus flavus assessed as growth inhibition at 50 ug/mL by agar diffusion method relative to control
Aspergillus niger [8] = experiment: Antifungal activity against Aspergillus niger assessed as growth inhibition at 50 ug/mL by agar diffusion method relative to control

Row | Substance | growth inhibition (GI) (Aspergillus flavus [1]) [%] | growth inhibition (GI) (Aspergillus niger [2]) [%] | growth inhibition (GI) (Aspergillus niger [3]) [%] | growth inhibition (GI) (Aspergillus flavus [4]) [%] | growth inhibition (GI) (Aspergillus niger [5]) [%] | growth inhibition (GI) (Aspergillus flavus [6]) [%] | growth inhibition (GI) (Aspergillus flavus [7]) [%] | growth inhibition (GI) (Aspergillus niger [8]) [%]
1 | chloro(ethyl)tris(pentafluorophenyl)-{5}-stibane | 96.7 | 60 | 95 | 73.3 | 75 | 66.6 | 83.3 | 80
2 | chlorobis(perfluorophenyl)stibine | 86.7 | 25 | 95 | 66.6 | 50 | 53.3 | 76.6 | 70
3 | dichloro(perfluorophenyl)stibine | 73.3 | 50 | 90 | 60 | 60 | 53.3 | 66.6 | 75
4 | dichlorotris(pentafluorophenyl)-{5}-stibane | 83.3 | 30 | 80 | 66.6 | 50 | 60 | 73.3 | 60
5 | tetrachloro(pentafluorophenyl)-{5}-stibane | 93.3 | 30 | 90 | 80 | 40 | 73.3 | 86.7 | 75
6 | trichlorobis(pentafluorophenyl)-{5}-stibane | 96.7 | 25 | 75 | 76.6 | 40 | 60 | 83.3 | 60
7 | tris(perfluorophenyl)stibine | 86.7 | 50 | 90 | 66.6 | 50 | 60 | 80 | 75
